ChEMBL document CHEMBL6134901 (J Med Chem, 2025)

System: Clostridioides difficile
Assay: Antibacterial activity against Clostridium difficile ATTC43255 assessed as spore germination inhibition at 45 uM incubated for 60 mins by spectrometry relative to control
Assay type: functional
Details: ATTC43255, 1 h

Row | Compound | inhibition at 45 µM [%]
1 | COc1ccc(-c2nc(-c3ccc(OC4CCCC4)cc3)no2)cc1 | < 10
2 | NCc1ccc(-c2nc(-c3ccc(Oc4ccc(C(F)(F)F)cc4)cc3)no2)cc1 | 41
3 | CCOc1ccc(-c2nc(-c3cccc4c3CCC4NCCO)no2)cc1OCC (configuration not stated) | < 10
4 | Nc1cc(Oc2ccccc2)ccc1-c1noc(-c2ccc(O)cc2)n1 | 17
5 | FC(F)(F)c1ccc(Oc2ccc(-c3noc(-c4n[nH]cc4Cl)n3)cc2)cc1 | < 10
6 | N#Cc1ccc(Oc2ccc(-c3noc(-c4ccc(O)cc4)n3)cc2)cc1 | < 10
7 | O=[N+]([O-])c1ccc(-c2nc(-c3ccc(OC4CCCC4)cc3)no2)cc1 | < 10
8 | CNCc1ccc(-c2nc(-c3ccc(OC4CCCC4)cc3)no2)cc1 | 37
9 | CCCCOc1ccc(-c2noc(-c3ccc(CNC(=O)OC(C)(C)C)cc3)n2)cc1 | < 10
10 | CN1CCN(c2ccc(-c3noc(-c4ccc(O)cc4)n3)cc2)CC1 | < 10
11 | CC(C)(C)OC(=O)NCc1ccc(-c2nc(-c3ccc(OC4CCCC4)cc3)no2)cc1 | < 10
12 | Nc1ccc(-c2noc(-c3ccc(O)cc3)n2)cc1 | < 10
